Results on 51 molecules are retold here after patent publication US4581354A, “3-arylcarbonyl- and 3-cycloalkylcarbonyl-1-aminoalkyl-1H-indoles, compositions and use” (Sterling Drug Inc., priority 1985, dated 1986).

Structures can show the parent of a compound that is named as a salt.

In one assay the test system is acetylcholine-induced abdominal constriction. Put plainly: animal or person. The settings on record: Mus musculus, iv, 10 mg./kg. i.v.; read-out: Ach percent inhibition. The format is in vivo, mice. An excerpt:
The test procedures used to determine the analgesic activities of the compounds have been described in detail in the prior art and are as follows: The acetylcholine-induced abdominal constriction test, which is a primary analgesic screening test designed to measure the ability of a test agent to suppress acetylcholine-induced abdominal constriction in mice, described by Collier et al., Brit. J. Pharmacol. Chemotherap. 32, 295 (1968); a modification of the anti-bradykinin test, which is also a primary analgesic screening procedure, described by Berkowitz et al., J. Pharmacol. Exptl. Therap. 177, 500-508 (1971), Blane et al., J. Pharm. Pharmacol. 19, 367-373 (1967), Botha et al., Eur. J. Pharmacol. 6, 312-321 (1969) and Deffenu et al., J. Pharm. Pharmacol. 18, 135 (1966); and the rat paw flexion test, described by Kuzuna et al., Chem. Pharm. Bull., 23, 1184-1191 (1975), Winter et al., J. Pharm. Exptl. Therap., 211, 678-685 (1979) and Capetola et al., J. Pharm. Exptl. Therap. 214, 16-23 (1980).
Unless noted otherwise, all data were obtained on oral administration and are expressed either as the ED50 or as the percent inhibition at a given dose level (thus 30/100 or 30% inhibition at […].)
In some instances, the compounds were retested two or more times, and ED50 values were calculated for each series of repeat tests. In such instances, each of the ED50 values so-obtained is given in a series of values, thus 6, 28, 30, 43 in the case of the species of Example 1AW in the acetylcholine-induced abdominal constriction test.
With `Cc1c(C(=O)c2cccc3ccccc23)c2ccccc2n1CCN1CCN(C)CC1` [Example 3J], the inhibition in vivo at 10 mg/kg came to 30%.

The same assay, now with this note: Mus musculus, iv; read-out: Ach ED50.
By ED50 is commonly meant the midpoint of the dose-response relation. `Cc1c(C(=O)c2cccc3ccccc23)c2ccccc2n1CCN1CCCC(O)C1` (stereo not shown) [Example 3H]: the ED50 was 9.7 mg/kg.

The assay is the same for the next values; noted with them: Mus musculus, po, 30 mg./kg. oral; read-out: Ach percent inhibition.
Take `Cc1c(C(=O)c2ccc(CNC(N)=NC#N)cc2)c2ccccc2n1CCN1CCOCC1` [Example 10, 2-methyl-3-(4-cyanoguanidinylmethylbenzoyl)-1-[2-(4-morpholinyl)ethyl]-1H-indole]: the inhibition in vivo at 30 mg/kg is 0%.

`Cc1c(C(=O)c2ccc(C=O)cc2)c2ccccc2n1CCN1CCOCC1` [Example 11, 2-methyl-3-(4-formylbenzoyl)-1-[2-(4-morpholinyl)ethyl]-1H-indole]: the inhibition in vivo at 30 mg/kg amounted to 20%.

The same assay, now with this note: Mus musculus, po, 100 mg./kg. oral; read-out: Ach percent inhibition.
In the case of `Cc1c(C(=O)c2ccccc2C#N)c2ccccc2n1CCN1CCOCC1` [Example 2L], the inhibition in vivo at 100 mg/kg is 10%. Same read-out and setting: as for `Cc1c(C(=O)c2cccc(C#N)c2)c2ccccc2n1CCN1CCOCC1` [Example 2M], the figure is 20%; as for `Cc1c(C(=O)c2ccn(C)c2)c2ccccc2n1CCN1CCOCC1` [Example 2N], 20%; as for `Cc1c(C(=O)c2ccsc2)c2ccccc2n1CCN1CCOCC1` [Example 2P], 30%. As to `Cc1c(C(=O)C2CCCCC2)c2ccccc2n1CCN1CCOCC1` [Example 2Q], the inhibition in vivo at 100 mg/kg turned out to be 20%. On the same count and under the same terms, as for `Cc1c(C(=O)c2ccc(C(C)(C)C)cc2)c2ccccc2n1CCN1CCOCC1` [Example 2R], the figure is 10%; as for `Cc1c(C(=O)c2cc3ccccc3s2)c2ccccc2n1CCN1CCOCC1` [Example 2S], 0%; as for `Cc1c(C(=O)c2cccn2C)c2ccccc2n1CCN1CCOCC1` [Example 2T], 30%. Same read-out and setting: as for `Cc1ccc(C(=O)c2c(C)n(CCN3CCOCC3)c3ccccc23)cc1C` [Example 2V], the figure is 20%; as for `CCN(CC)CCCCn1c(C)c(C(=O)c2ccc(OC)cc2)c2ccccc21` [Example 3AD], 100%; as for `COc1ccc(C(=O)c2c(C)n(CCCN3CCS(=O)(=O)CC3)c3ccc(F)cc23)cc1` [Example 3AH], 30%.

Consider `Cc1c(C(=O)c2cccc3ccccc23)c2ccccc2n1CCN1CCNCC1` [Example 3I], for which the inhibition in vivo at 100 mg/kg is 30%.

For `Cc1c(C(=O)c2cccc3ccccc23)c2ccccc2n1CCN1CCOC(C)C1` (stereo not shown) [Example 3M], the inhibition in vivo at 100 mg/kg worked out at 10%. As to `COc1ccc(C(=O)c2c(C)n(CCN3CCCC(NC(C)=O)C3)c3ccccc23)cc1` (stereo not shown) [Example 3N, 1-[2-(3-acetylamino-1-piperidinyl)ethyl]-2-methyl-3-(4-methoxybenzoyl)-1H-indole], the inhibition in vivo at 100 mg/kg stood at 40%. The same measure, in the same setting: the figure for `COc1ccc(C(=O)c2c(C)n(CCN3CCCCC3CC3CCCCC3)c3ccccc23)cc1` (stereo not shown) [Example 3Q] is 40%.

Consider `COc1ccc(C(=O)c2c(C)n(CCN3CC(C)OC(C)C3)c3ccccc23)cc1` (stereo not shown) [Example 3R], for which the inhibition in vivo at 100 mg/kg came to 40%. The same measure, in the same setting: as for `COc1ccc(C(=O)c2c(C)n(CCN3CCN(C=O)CC3)c3ccccc23)cc1` [Example 3S, 1-[2-(4-formyl-1-piperazinyl)ethyl]-2-methyl-3-(4-methoxybenzoyl)-1H-indole], the figure is 40%; as for `COc1ccc(C(=O)c2c(C)n(CCN3CCSCC3)c3ccccc23)cc1` [Example 3U, 2-methyl-3-(4-methoxybenzoyl)-1-[2-(4-thiomorpholinyl)ethyl]-1H-indole], 30%. Same read-out and setting: the figure for `CCCCNc1ccc(C(=O)c2c(C)n(CCN3CCOCC3)c3ccccc23)cc1` [Example 8B, 2-methyl-3-(4-butylaminobenzoyl)-1-[2-(4-morpholinyl)ethyl]-1H-indole] is 35%; for `Cc1c(C(=NO)c2ccccc2F)c2cc(F)ccc2n1CCCN1CCOCC1` [Example 13B, 5-fluoro-3-(2-fluorobenzoyl)-2-methyl-1-[3-(4-morpholinyl)propyl]-1H-indole oxime] it is 0%; for `Cc1c(/C(=N\O)c2ccccc2F)c2ccccc2n1CCN1CCOCC1` [Example 13C, (E)-3-(2-fluorobenzoyl)-2-methyl-1-[2-(4-morpholinyl)ethyl]-1H-indole oxime] it is 20%.

The same assay, now with this note: Mus musculus, po, 150 mg./kg. oral; read-out: Ach percent inhibition.
With `Cc1c(C(=O)c2ccc(NS(C)(=O)=O)cc2)c2ccccc2n1CCN1CCOCC1` [Example 5E], the inhibition in vivo at 150 mg/kg was 38%.

The same assay, now with this note: Mus musculus, po, 300 mg./kg. oral; read-out: Ach percent inhibition.
With `Cc1c(C(=O)c2ccc(NS(C)(=O)=O)cc2)c2ccccc2n1CCN1CCOCC1` [Example 5E], the inhibition in vivo at 300 mg/kg was determined as 40%. Still for that read-out and setting: as for `Cc1c(C(=O)c2ccc(NC(N)=O)cc2)c2ccccc2n1CCN1CCOCC1` [Example 9, 2-methyl-3-(4-carbamylaminobenzoyl)-1-[2-(4-morpholinyl)ethyl]-1H-indole], the figure is 27%.

Still in this assay, the particulars now being: Mus musculus, po; read-out: Ach ED50.
Turning to `Cc1c(C(=O)c2cccn2C)c2ccccc2n1C(C)CN1CCOCC1` (stereo not shown) [Example 2H], the ED50 amounted to 49 mg/kg. Still for that read-out and setting: the figure for `Cc1cccc2c(C(=O)c3ccccc3)cn(C(C)CN3CCOCC3)c12` (stereo not shown) [Example 2J] is 60 mg/kg; for `Cc1ccccc1C(=O)c1c(C)n(CCN2CCOCC2)c2ccccc12` [Example 2U] it is 88 mg/kg; for `Cc1c(C(=O)C=Cc2ccccc2)c2ccccc2n1CCN1CCOCC1` [Example 2W] it is 72 mg/kg. On the same count and under the same terms, as for `COc1ccc(C(=O)c2c(C)n(CCN(C)CCO)c3ccccc23)cc1` [Example 3-O], the figure is 76 mg/kg.

On to `COc1ccc(C(=O)c2c(C)n(CCN3CCC(O)CC3)c3ccccc23)cc1` [Example 3A, 2-methyl-3-(4-methoxybenzoyl)-1-[2-(4-hydroxy-1-piperidinyl)ethyl]-1H-indole hydrochloride hemihydrate], for which the ED50 stood at 68.1 mg/kg.

For `COc1ccc(C(=O)c2c(C)n(CCCCN3CCOCC3)c3ccccc23)cc1` [Example 3AA], the ED50 came out at 22 mg/kg. Same read-out and setting: the figure for `COc1ccc(C(=O)c2c(C)n(CCCCN3CCCCC3)c3ccccc23)cc1` [Example 3AB] is 25 mg/kg; for `COc1ccc(C(=O)c2c(C)n(CCCCN3CCCC3)c3ccccc23)cc1` [Example 3AC] it is 21 mg/kg; for `COc1ccc(C(=O)c2c(C)n(CCCN3CCSCC3)c3ccc(F)cc23)cc1.Cl` [Example 3AF, 5-fluoro-2-methyl-3-(4-methoxybenzoyl)-1-[3-(4-thiomorpholinyl)propyl]-1H-indole hydrochloride] it is 139 mg/kg.

For `CCNCCCn1c(C)c(C(=O)c2ccc(OC)cc2)c2cc(F)ccc21` [Example 3AG], the ED50 is 42 mg/kg. In the case of `COc1ccc(C(=O)c2c(C)n(CCCN(C)CCO)c3ccc(F)cc23)cc1` [Example 3AJ], the ED50 worked out at 35 mg/kg. The same measure, in the same setting: as for `COc1ccc(C(=O)c2c(C)n(CCN3CCN(C)CC3)c3ccccc23)cc1` [Example 3C], the figure is 53 mg/kg; as for `CCNCCn1c(C)c(C(=O)c2ccc(OC)cc2)c2ccccc21` [Example 3K], 45.7 mg/kg; as for `COCCNCCn1c(C)c(C(=O)c2ccc(OC)cc2)c2ccccc21` [Example 3L], 44 mg/kg. Take `COc1ccc(C(=O)c2c(C)n(CCN3CCOC(C)C3)c3ccccc23)cc1` (stereo not shown) [Example 3P]: the ED50 stood at 71 mg/kg. As for `COc1ccc(C(=O)c2c(C)n(CCN3CCCNCC3)c3ccccc23)cc1` [Example 3T], the ED50 worked out at 53 mg/kg.

Turning to `COc1ccc(C(=O)c2c(C)n(CCN3CCS(=O)(=O)CC3)c3ccccc23)cc1` [Example 3V], the ED50 is 254 mg/kg. The same measure, in the same setting: the figure for `COc1ccc(C(=O)c2c(C)n(CCCN3CCCC(O)C3)c3ccc(F)cc23)cc1` (stereo not shown) [Example 3W] is 49 mg/kg; for `COc1ccc(C(=O)c2c(C)n(CCCN3CCOC(C)C3)c3ccc(F)cc23)cc1` (stereo not shown) [Example 3Y] it is 69 mg/kg.

On to `COc1ccc2c(C(=O)c3ccc(N)cc3)c(C)n(CCN3CCOCC3)c2c1` [Example 4C, 2-methyl-3-(4-aminobenzoyl)-6-methoxy-1-[2-(4-morpholinyl)ethyl]-1H-indole], for which the ED50 is 37 mg/kg.

`Cc1c(C(=O)c2ccc(N)cc2)c2ccccc2n1C(C)CN1CCOCC1` (stereo not shown) [Example 4D, 2-methyl-3-(4-aminobenzoyl)-1-[1-methyl-2-(4-morpholinyl)ethyl]-1H-indole]: the ED50 is 24 mg/kg. Still for that read-out and setting: the figure for `CCC(=O)Nc1ccc(C(=O)c2c(C)n(CCN3CCOCC3)c3ccccc23)cc1` [Example 5F] is 76 mg/kg; for `COc1ccc(C(=NO)c2c(C)n(CCN3CCOCC3)c3ccccc23)cc1` [Example 13A, 2-methyl-3-(4-methoxybenzoyl)-1-[2-(4-morpholinyl)ethyl]-1H-indole oxime] it is 139 mg/kg.

Staying with this assay, now noted: Mus musculus, sc, 30 mg./kg. s.c.; read-out: Ach percent inhibition.
With `Cc1c(C(=O)c2ccc(NC(N)=O)cc2)c2ccccc2n1CCN1CCOCC1` [Example 9, 2-methyl-3-(4-carbamylaminobenzoyl)-1-[2-(4-morpholinyl)ethyl]-1H-indole], the inhibition in vivo at 30 mg/kg came out at 20%. On to `Cc1c(C(=O)c2ccc(CNC(N)=NC#N)cc2)c2ccccc2n1CCN1CCOCC1` [Example 10, 2-methyl-3-(4-cyanoguanidinylmethylbenzoyl)-1-[2-(4-morpholinyl)ethyl]-1H-indole], for which the inhibition in vivo at 30 mg/kg was 7%.

As to `Cc1c(C(=O)c2ccc(C=O)cc2)c2ccccc2n1CCN1CCOCC1` [Example 11, 2-methyl-3-(4-formylbenzoyl)-1-[2-(4-morpholinyl)ethyl]-1H-indole], the inhibition in vivo at 30 mg/kg turned out to be 13%.
